Test results from paper PMC4038554, “Human CD4^+ T Cell Responses to the Dog Major Allergen Can f 1 and Its Human Homologue Tear Lipocalin Resemble Each Other” (PLoS ONE, 2014).

How the values were obtained:
Experiment in all cases: HLA class II peptide-binding assay (competitive ELISA)
DRB1*0701 = DRB1*0701 (Homo sapiens, UniProt P01903+P01911, A100R/A102G/A103Q/D57E/D86V/E43K/F76Y/K127E/L162R/M171V/P40G/Q125H/Q99D/R33Q/R42Y/R54Q/S133A/S66F/T210M/V115G/Y107V/Y59L/Y89S); conditions: immunopurified HLA, reference peptide IC50 5 nM, ratio ≤20 high affinity, 20–200 moderate affinity
DRB1*1301 = DRB1*1301 (Homo sapiens, UniProt P01903+P01911, A100E/A169T/K41T/L162R/M171V/P40S/Q125H/Q178H/Q39Y/Q99D/R42S/S66N/T262R/W38E/Y61H); conditions: immunopurified HLA, reference peptide IC50 208 nM, ratio ≤20 high affinity, 20–200 moderate affinity
DRB1*1101 = DRB1*1101 (Homo sapiens, UniProt P01903+P01911, A100R/A169T/A87E/I96F/K41T/L162R/M171V/P40S/Q125H/Q178H/Q39Y/Q99D/R42S/S66Y/T262R/V115G/W38E); conditions: immunopurified HLA, reference peptide IC50 50 nM, ratio ≤20 high affinity, 20–200 moderate affinity
DRB4 = tested on: DRB4; set-up: species or system human; conditions: DRB4; competitive ELISA, immunopurified HLA; reference peptide IC50 8 nM; ratio ≤20 high affinity, 20–200 moderate affinity
DRB1*0101 = DRB1*0101 (Homo sapiens, UniProt P01903+P01911, A100R/D57E/F55L/F60I/F76Y/I96L/L162R/M171V/P40L/Q125E/R42F/V115G/Y59C); conditions: immunopurified HLA, reference peptide IC50 3 nM, ratio ≤20 high affinity, 20–200 moderate affinity
DRB5 = tested on: DRB5; set-up: species or system human; conditions: DRB5; competitive ELISA, immunopurified HLA; reference peptide IC50 7 nM; ratio ≤20 high affinity, 20–200 moderate affinity
DRB1*0401 = DRB1*0401 (Homo sapiens, UniProt P01903+P01911, A100K/A169T/F76Y/I96L/K127E/L162R/M171V/N62H/P40V/Q125Y/R42H/S133A/S149N/S66Y/V115G/V209L/W38E); conditions: immunopurified HLA, reference peptide IC50 8 nM, ratio ≤20 high affinity, 20–200 moderate affinity
DRB1*0301 = DRB1*0301 (Homo sapiens, UniProt P01903+P01911, A100K/A102G/A103R/A169T/F55Y/I96L/K41T/L162R/M171V/P40S/Q125H/Q178H/Q39Y/R42S/S66N/T106N/T262R/W38E/Y61H); conditions: immunopurified HLA, reference peptide IC50 423 nM, ratio ≤20 high affinity, 20–200 moderate affinity
DRB1*1501 = DRB1*1501 (Homo sapiens, UniProt P01903+P01911); conditions: immunopurified HLA, reference peptide IC50 775 nM, ratio ≤20 high affinity, 20–200 moderate affinity
DRB3 = tested on: DRB3; set-up: species or system human; conditions: DRB3; competitive ELISA, immunopurified HLA; reference peptide IC50 60 nM; ratio ≤20 high affinity, 20–200 moderate affinity

| Sequence | relative binding ratio (IC50 of the test peptide divided by IC50 of the reference peptide) (DRB1*0701) | relative binding ratio (IC50 of the test peptide divided by IC50 of the reference peptide) (DRB1*1301) | relative binding ratio (IC50 of the test peptide divided by IC50 of the reference peptide) (DRB1*1101) | relative binding ratio (IC50 of the test peptide divided by IC50 of the reference peptide) (DRB4) | relative binding ratio (IC50 of the test peptide divided by IC50 of the reference peptide) (DRB1*0101) | relative binding ratio (IC50 of the test peptide divided by IC50 of the reference peptide) (DRB5) | relative binding ratio (IC50 of the test peptide divided by IC50 of the reference peptide) (DRB1*0401) | relative binding ratio (IC50 of the test peptide divided by IC50 of the reference peptide) (DRB1*0301) | relative binding ratio (IC50 of the test peptide divided by IC50 of the reference peptide) (DRB1*1501) | relative binding ratio (IC50 of the test peptide divided by IC50 of the reference peptide) (DRB3) |
| --- | --- | --- | --- | --- | --- | --- | --- | --- | --- | --- |
| GTWYLKAMTVDREFPE [pTL1, Tear lipocalin peptide p15–30] | 47 | 24 | 67 | 1 | 82 | 2 | 1 | 10 | 6 | 84 |
| RQIRMAKLLGRDPEQSQ [pC7, Can f 1 peptide p107–123] | > 1 874 | 2 | 92 | 94 | 66 | 1 | 661 | 4 | > 13 | > 167 |
| KPDSVTPMILKAQKGGNL [pC2, Can f 1 peptide p31–48] | > 1 874 | 26 | 11 | > 1 179 | 141 | 144 | 72 | 1 | > 13 | 1 |
| GQRVVFIQPSPVRDHY [pC5, Can f 1 peptide p81–96] | 61 | 33 | 179 | 1 054 | 1 | 3 | 101 | 28 | 7 | > 167 |
| EILELAQSETCSPGGQ [pC9, Can f 1 peptide p141–156] | 230 | > 481 | > 200 | > 1 179 | 54 | > 1 443 | 113 | > 236 | > 13 | > 167 |
| HYIFYCEGELHGKPVR [pTL6, Tear lipocalin peptide p96–111] | 2 222 | > 481 | 3 | 121 | 31 | 16 | 3 | > 236 | 5 | > 167 |

Continued, values first:

| relative binding ratio (IC50 of the test peptide divided by IC50 of the reference peptide) (DRB1*0701) | relative binding ratio (IC50 of the test peptide divided by IC50 of the reference peptide) (DRB1*1301) | relative binding ratio (IC50 of the test peptide divided by IC50 of the reference peptide) (DRB1*1101) | relative binding ratio (IC50 of the test peptide divided by IC50 of the reference peptide) (DRB4) | relative binding ratio (IC50 of the test peptide divided by IC50 of the reference peptide) (DRB1*0101) | relative binding ratio (IC50 of the test peptide divided by IC50 of the reference peptide) (DRB5) | relative binding ratio (IC50 of the test peptide divided by IC50 of the reference peptide) (DRB1*0401) | relative binding ratio (IC50 of the test peptide divided by IC50 of the reference peptide) (DRB1*0301) | relative binding ratio (IC50 of the test peptide divided by IC50 of the reference peptide) (DRB1*1501) | relative binding ratio (IC50 of the test peptide divided by IC50 of the reference peptide) (DRB3) | Sequence |
| --- | --- | --- | --- | --- | --- | --- | --- | --- | --- | --- |
| 447 | 5 | 0.3 | > 1 179 | 209 | 1 | 120 | 7 | > 13 | > 167 | GKHVAYIIRSHVKDHY [pTL5, Tear lipocalin peptide p82–97] |
| 75 | 26 | 70 | 29 | 32 | 72 | 1 | 1 | 8 | > 167 | GKWYLKAMTADQEVPE [pC1, Can f 1 peptide p15–30] |
| > 1 874 | > 481 | > 200 | > 1 179 | 569 | > 1 443 | > 1 260 | > 236 | > 13 | > 167 | ESILIPRQSETCSPGSD [pTL9, Tear lipocalin peptide p142–158] |
| 65 | > 481 | 0.2 | > 1 179 | 17 | 433 | 31 | > 236 | > 13 | 2 | PGKYTADGGKHVAYII [pTL4, Tear lipocalin peptide p74–89] |
| 644 | 40 | 78 | 62 | 48 | 50 | 91 | 14 | 7 | > 167 | HYILYCEGELHGRQIR [pC6, Can f 1 peptide p95–110] |
